A short description of this data set: Oral administration pharmacokinetic studies in rats (thiorphan plasma concentration, HPLC). The data set is classed as in vivo, Sprague Dawley rats. On the procedure: Formulations were administered to rats at doses expected to be pharmacologically effective for estimation of the bioavailability. Blood was drawn at specified time points and plasma concentration of thiorphan was assessed.
Animals: Sprague Dawley rats, approximate weight 250 g. Animal preparation: Deprived of food (but not of water) during 18 h preceding dosing. Mode of administration: thiorphan (i.v.) and racecadotril (p.o.) by oral gavage. Blood sampling volume: 300 μl/per sample.
Blood was drawn at specified time points. Plasma was immediately frozen and kept at −80° C. for assessment of thiorphan concentration by HPLC.
Formulation nr. 8 (example 2) was administered to rats p.o. at dose of 20 mg/kg. One group of rats was given thiorphan i.v. at a dose of 13.4 mg/kg as a reference. […]

[1] abbreviates: individual rats, thiorphan i.v. 13.4 mg/kg, 13.4 mg/kg.

Consider one compound from patent publication US20190021992A1, “NEW IMPROVED COMPOSITION COMPRISING AT LEAST ONE CADOTRIL” (Johnson & Johnson Consumer Inc., priority 2016, published 2019).

SMILES strings stand for the structures. “And” between values parts separate entries of the source, which are not always exact repeats. Equal values may be shown once.

One may read the Cmax as the highest concentration seen after dosing. A word on the Tmax: it is the time at which the peak concentration occurs.

For `O=C(O)CNC(=O)C(CS)Cc1ccccc1` (centres unmarked) [Thiorphan, thiorphan], the AUC(0-inf) (Sprague Dawley, rat, plasma, iv, 13.4 mg/kg, average of 3 rats, thiorphan i.v. 13.4 mg/kg, read-out: AUCinf (thiorphan), Avg) amounted to 1710 ng·h/mL. This compound yielded a Cmax (Sprague Dawley, rat, plasma, iv, 13.4 mg/kg, individual rats, thiorphan i.v. 13.4 mg/kg) of 15900 ng/mL. Also, the Tmax (Sprague Dawley, rat, plasma, iv, individual rats, thiorphan i.v. 13.4 mg/kg) was determined as 1.98 min. Under setting [1], the “AUCinf (thiorphan)” value was 2403 ng·h/mL and 1857 ng·h/mL and 871 ng·h/mL; the “AUCt (thiorphan)” value was 2392 ng·h/mL and 1843 ng·h/mL and 857 ng·h/mL; the “Cmax (thiorphan)” value is 17649 ng/mL and 21914 ng/mL; the “T_half (thiorphan)” value is 1.31 h and 0.57 h and 1.81 h. Under “thiorphan i.v. 13.4 mg/kg (reference)”, the “Rel BA (%)” value worked out at 100%.
